Test results reported in ChEMBL document CHEMBL1614632, “Trend analysis of a database of intravenous pharmacokinetic parameters in humans for 670 drug compounds” (Drug Metab Dispos, 2008).

Assays:
clinical [1] = conditions: human, in vivo, iv, Vdss
clinical [2] = conditions: human, in vivo, iv, CL
clinical [3] = conditions: human, in vivo, iv
clinical [4] = conditions: human, in vivo, iv, t1/2

Row | Vd (clinical [1]) [L/kg] | clearance (clinical [2]) [L/h/kg] | MRT (clinical [3]) [h] | half-life (clinical [4]) [h] | SMILES
1 | 0.3 | 0.084 | 3.6 | 3 | NC(=O)CC[C@@H]1NC(=O)[C@H](Cc2ccccc2)NC(=O)[C@H](Cc2ccc(O)cc2)NC(=O)CCSSC[C@@H](C(=O)N2CCC[C@H]2C(=O)N[C@H](CCCN=C(N)N)C(=O)NCC(N)=O)NC(=O)[C@H](CC(N)=O)NC1=O [DESMOPRESSIN]
2 | 0.18 | 0.222 | 0.79 | 1.2 | CCCCCN(CCCOC)C(=O)[C@@H](CCC(=O)O)NC(=O)c1ccc(Cl)c(Cl)c1 [DEXLOXIGLUMIDE]
3 | 8.4 | 0.558 | 15 | 22 | COC(=O)C1=C(C)NC(C)=C(C(=O)OCCCN2CCC(c3ccccc3)(c3ccccc3)CC2)[C@@H]1c1cccc([N+](=O)[O-])c1 [DEXNIGULDIPINE]
4 | 0.21 | 0.0036 | 58 | 48 | CC1=NS(=O)(=O)c2cc(Cl)ccc2N1 [DIAZOXIDE]
5 | 0.11 | 0.12 | 0.92 | 0.88 | Cc1onc(-c2c(Cl)cccc2Cl)c1C(=O)N[C@@H]1C(=O)N2[C@@H]1SC(C)(C)[C@@H]2C(=O)O [DICLOXACILLIN]
6 | 4.1 | 0.102 | 40 | 38 | C[C@H]1O[C@@H](O[C@H]2[C@@H](O)C[C@H](O[C@H]3[C@@H](O)C[C@H](O[C@H]4CC[C@@]5(C)[C@H](CC[C@@H]6[C@@H]5C[C@@H](O)[C@]5(C)[C@@H](C7=CC(=O)OC7)CC[C@]65O)C4)O[C@@H]3C)O[C@@H]2C)C[C@H](O)[C@@H]1O [DIGOXIN]
7 | 1.2 | 0.318 | 3.7 | 4.1 | CCN1CC(CCN2CCOCC2)C(c2ccccc2)(c2ccccc2)C1=O (configuration not stated) [DOXAPRAM]
8 | 12 | 0.84 | 15 | 15 | CN(C)CCC=C1c2ccccc2COc2ccccc21 [DOXEPIN]
9 | 0.28 | 0.66 | 0.46 | 0.35 | C[C@H]1O[C@@H](n2cc(F)c(=O)[nH]c2=O)[C@H](O)[C@@H]1O [DOXIFLURIDINE]
10 | 22 | 0.9 | 24 | 32 | COc1cccc2c1C(=O)c1c(O)c3c(c(O)c1C2=O)C[C@@](O)(C(=O)CO)C[C@@H]3O[C@H]1C[C@H](N)[C@H](O)[C@H](C)O1 [DOXORUBICIN]
11 | 0.69 | 0.0276 | 25 | 14 | C[C@H]1c2cccc(O)c2C(=O)C2=C(O)[C@]3(O)C(=O)C(C(N)=O)=C(O)[C@@H](N(C)C)[C@@H]3[C@@H](O)[C@@H]21.O [DOXYCYCLINE]
12 | 1.9 | 0.21 | 9 | 9.3 | CCOc1ccc(/C=C2\NCCc3cc(OCC)c(OCC)cc32)cc1OCC [DROTAVERINE]
13 | 0.42 | 0.288 | 1.5 | 1.7 | Cn1c(=O)c2c(ncn2CC(O)CO)n(C)c1=O (configuration not stated) [DYPHYLLINE]
14 | 0.38 | 0.096 | 4 | 39 | C[C@H](N[C@@H](CCc1ccccc1)C(=O)O)C(=O)N1CCC[C@H]1C(=O)O [ENALAPRILAT ANHYDROUS]

Row | SMILES | Vd (clinical [1]) [L/kg] | clearance (clinical [2]) [L/h/kg] | MRT (clinical [3]) [h] | half-life (clinical [4]) [h]
15 | CCC(CC)COC(C(=O)OCCN(C)C)(c1ccccc1)c1ccccc1 [DENAVERINE] | 7.1 | 0.342 | 21 | 34
16 | O=C(O)C(Cl)Cl [DICHLOROACETIC ACID] | 0.19 | 0.318 | 0.6 | 0.65
17 | O=C(O)Cc1ccccc1Nc1c(Cl)cccc1Cl [DICLOFENAC] | 0.22 | 0.21 | 1 | 1.4
18 | CC[N+](C)(C)c1cccc(O)c1.[Br-] [EDROPHONIUM BROMIDE] | 1.1 | 0.576 | 1.9 | 1.8
